The solubility (mole fraction) is solubility expressed as the solute's share of all molecules.

`Nc1ccc(C(=O)/C=C/c2ccc(-c3cccc([N+](=O)[O-])c3)o2)cc1`: the solubility (mole fraction) is, setting by setting: (in 1,4-dioxane, 298.15 K) 0.00245; (in 1,4-dioxane, 303.15 K) 0.00248; (in 1,4-dioxane, 308.15 K) 0.0025; (in 1,4-dioxane, 313.15 K) 0.00252; (in 1,4-dioxane, 318.15 K) 0.00255; (in DMF, 298.15 K) 0.00264. For the same compound, the solubility (mole fraction) runs as follows: (in DMF, 303.15 K) 0.00264; (in DMF, 308.15 K) 0.00264; (in DMF, 313.15 K) 0.00264; (in DMF, 318.15 K) 0.00264.

Consider `O=C(/C=C/c1ccc(-c2cccc([N+](=O)[O-])c2)o1)c1ccc(Br)cc1`, for which the solubility (mole fraction) reads like this: (in 1,4-dioxane, 298.15 K) 0.00489; (in 1,4-dioxane, 303.15 K) 0.00491; (in 1,4-dioxane, 308.15 K) 0.00495; (in 1,4-dioxane, 313.15 K) 0.00501; (in 1,4-dioxane, 318.15 K) 0.00501; (in DMF, 298.15 K) 0.00705. The solubility (mole fraction) worked out at 0.0071 (in DMF, 303.15 K); 0.00714 (in DMF, 308.15 K); 0.00722 (in DMF, 313.15 K); 0.00726 (in DMF, 318.15 K).

Turning to `COc1ccc(C(=O)/C=C/c2ccc(-c3cccc([N+](=O)[O-])c3)o2)cc1`, the solubility (mole fraction) was 0.00732 (in 1,4-dioxane, 298.15 K); 0.00733 (in 1,4-dioxane, 303.15 K); 0.00737 (in 1,4-dioxane, 308.15 K); 0.00742 (in 1,4-dioxane, 313.15 K); 0.00744 (in 1,4-dioxane, 318.15 K); 0.0112 (in DMF, 298.15 K). The solubility (mole fraction) reads like this: (in DMF, 303.15 K) 0.0112; (in DMF, 308.15 K) 0.0113; (in DMF, 313.15 K) 0.0113; (in DMF, 318.15 K) 0.0114.

In turn, `O=C(/C=C/c1ccc(-c2cccc([N+](=O)[O-])c2)o1)CO` showed a solubility (mole fraction) (in 1,4-dioxane, 298.15 K) of 0.00705; a solubility (mole fraction) (in 1,4-dioxane, 303.15 K) of 0.00707; a solubility (mole fraction) (in 1,4-dioxane, 308.15 K) of 0.0071; a solubility (mole fraction) (in 1,4-dioxane, 313.15 K) of 0.00711; a solubility (mole fraction) (in 1,4-dioxane, 318.15 K) of 0.00714; a solubility (mole fraction) (in DMF, 298.15 K) of 0.0094. For the same compound, the solubility (mole fraction) worked out at 0.00945 (in DMF, 303.15 K); 0.0095 (in DMF, 308.15 K); 0.0095 (in DMF, 313.15 K); 0.00959 (in DMF, 318.15 K).

Take `O=C(/C=C/c1ccc(-c2cccc([N+](=O)[O-])c2)o1)c1ccc(O)cc1`: the solubility (mole fraction) was found to be 0.00573 (in 1,4-dioxane, 298.15 K); 0.0058 (in 1,4-dioxane, 303.15 K); 0.00581 (in 1,4-dioxane, 308.15 K); 0.00591 (in 1,4-dioxane, 313.15 K); 0.00592 (in 1,4-dioxane, 318.15 K); 0.00665 (in DMF, 298.15 K). In addition, the solubility (mole fraction) is, setting by setting: (in DMF, 303.15 K) 0.0067; (in DMF, 308.15 K) 0.00675; (in DMF, 313.15 K) 0.0068; (in DMF, 318.15 K) 0.00692.

For `O=C(/C=C/c1ccc(-c2cccc([N+](=O)[O-])c2)o1)c1ccc2ccc(=O)oc2c1`, the solubility (mole fraction) reads like this: (in 1,4-dioxane, 298.15 K) 0.00617; (in 1,4-dioxane, 303.15 K) 0.00623; (in 1,4-dioxane, 308.15 K) 0.00622; (in 1,4-dioxane, 313.15 K) 0.00624; (in 1,4-dioxane, 318.15 K) 0.00628; (in DMF, 298.15 K) 0.00696. Also, the solubility (mole fraction) reads like this: (in DMF, 303.15 K) 0.007; (in DMF, 308.15 K) 0.0071; (in DMF, 313.15 K) 0.0072; (in DMF, 318.15 K) 0.00721.

Take `O=C(/C=C/c1ccc(-c2cccc([N+](=O)[O-])c2)o1)c1ccccc1`: the solubility (mole fraction) reads like this: (in 1,4-dioxane, 298.15 K) 0.00553; (in 1,4-dioxane, 303.15 K) 0.0056; (in 1,4-dioxane, 308.15 K) 0.00565; (in 1,4-dioxane, 313.15 K) 0.00571; (in 1,4-dioxane, 318.15 K) 0.00573; (in DMF, 298.15 K) 0.00983. Besides, the solubility (mole fraction) runs as follows: (in DMF, 303.15 K) 0.0099; (in DMF, 308.15 K) 0.00998; (in DMF, 313.15 K) 0.0101; (in DMF, 318.15 K) 0.0101.

`O=C(/C=C/c1ccc(-c2cccc([N+](=O)[O-])c2)o1)c1cccc([N+](=O)[O-])c1`: the solubility (mole fraction) reads like this: (in 1,4-dioxane, 298.15 K) 0.00596; (in 1,4-dioxane, 303.15 K) 0.00601; (in 1,4-dioxane, 308.15 K) 0.00602; (in 1,4-dioxane, 313.15 K) 0.00605; (in 1,4-dioxane, 318.15 K) 0.00608; (in DMF, 298.15 K) 0.00604. The solubility (mole fraction) amounted to 0.0061 (in DMF, 303.15 K); 0.00614 (in DMF, 308.15 K); 0.0062 (in DMF, 313.15 K); 0.0062 (in DMF, 318.15 K).

In the case of `O=C(/C=C/c1ccc(-c2cccc([N+](=O)[O-])c2)o1)c1ccc(Cl)cc1`, the solubility (mole fraction) by setting is: (in 1,4-dioxane, 298.15 K) 0.00271; (in 1,4-dioxane, 303.15 K) 0.00272; (in 1,4-dioxane, 308.15 K) 0.00277; (in 1,4-dioxane, 313.15 K) 0.00282; (in 1,4-dioxane, 318.15 K) 0.00284; (in DMF, 298.15 K) 0.0045. Also, the solubility (mole fraction) came out at 0.0046 (in DMF, 303.15 K); 0.00468 (in DMF, 308.15 K); 0.0047 (in DMF, 313.15 K); 0.0048 (in DMF, 318.15 K).

In the case of `O=C(/C=C/c1ccc(-c2cccc([N+](=O)[O-])c2)o1)c1ccc([N+](=O)[O-])cc1`, the solubility (mole fraction) (in 1,4-dioxane, 298.15 K) was determined as 0.00229; the solubility (mole fraction) (in 1,4-dioxane, 303.15 K) was found to be 0.00232; the solubility (mole fraction) (in 1,4-dioxane, 308.15 K) is 0.00239; the solubility (mole fraction) (in 1,4-dioxane, 313.15 K) was 0.00241; the solubility (mole fraction) (in 1,4-dioxane, 318.15 K) was found to be 0.00245; the solubility (mole fraction) (in DMF, 298.15 K) turned out to be 0.00237. Further, the solubility (mole fraction) runs as follows: (in DMF, 303.15 K) 0.0024; (in DMF, 308.15 K) 0.00244; (in DMF, 313.15 K) 0.00245; (in DMF, 318.15 K) 0.00248.
